One assay has as its target KRAS G13D (Homo sapiens, UniProt P01116+P62937, G13D). Kind of assay: Disruption of BRAF RBD interaction with Ras (FRET / MOA assay, with Cyclophilin A). The following applies: KRAS G13D; read-out: KRAS G13D FRET data IC50. Type of assay: biochemical. The gist of the method:
(§1)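 TR-FRET: nucleotide-loaded K-Ras mutant or WT with Cyclophilin A and BRAF RBD, compound 10-point 3-fold from 30 μM final, 3 h at 25° C, then anti-His Eu (10 nM) and anti-GST APC (50 nM) for 1.5 h. Decreased FRET ratio versus DMSO gives IC50.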

The target of another assay is KRAS G12D (Homo sapiens, UniProt P01116+P62937, G12D). Described as above. Type of assay: biochemical. The following applies: read-out: KRAS G12D FRET data, IC50. An outline of the steps:
as §1

In a further assay the target is KRAS G12V (Homo sapiens, UniProt P01116+P62937, G12V). Described as above. Type of assay: biochemical. The following applies: KRAS G12V; read-out: KRAS G12V FRET data IC50. An outline of the steps: as §1
In a further assay the target is KRAS G13C (Homo sapiens, UniProt P01116+P62937, G13C). Described as above. The format is biochemical. The settings on record: read-out: KRAS G13C FRET data, IC50. The gist of the method:
as §1

The target of the next assay is NRAS G12C (Homo sapiens, UniProt P01111+P62937, G12C). The description is as above. The settings on record: NRAS G12C; read-out: NRAS G12C FRET data IC50. The format is biochemical.
The target in another assay is KRAS WT (Homo sapiens, UniProt P01116+P62937). The description is as above. The format is biochemical. The following applies: KRAS WT; read-out: KRAS WT FRET data IC50. The gist of the method:
as §1

Another assay has as its target KRAS G12S (Homo sapiens, UniProt P01116+P62937, G12S). The description is as above. The settings on record: read-out: KRAS G12S FRET data, IC50. Type of assay: biochemical. The gist of the method: as §1
The target in a further assay is KRAS G12C (Homo sapiens, UniProt P01116+P62937, G12C). Described as above. The format is biochemical. The following applies: read-out: KRAS G12C FRET data, IC50. An outline of the steps: as §1
The subject of another assay is Capan-1 (K-Ras G12V). Kind of assay: CellTiter-Glo cell viability assay, 5-day treatment. Type of assay: cell-based. The settings on record: Homo sapiens, CAPAN-1, 120 h, 5-day treatment; read-out: Capan-1 Cell Viability assay data (K-Ras G12V, IC50). An outline of the steps:
(§2)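 Viability is read as luminescence on day 5 after direct compound addition to plated cells, following about 30 minutes' room-temperature equilibration. Each signal is scaled to mean DMSO as 100%.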
(In general: ATP-based viability assays read luminescence as a measure of living cells.)

The subject of a further assay is NCI-H358 (K-Ras G12C). The description is as above. Type of assay: cell-based. The following applies: Homo sapiens, NCI-H358, 120 h, 5-day treatment; read-out: H358 Cell Viability assay data (K-Ras G12C, IC50). The gist of the method:
as §2

Sequence of KRAS G12C (P01116 1-169 isoform P01116-2 G12C): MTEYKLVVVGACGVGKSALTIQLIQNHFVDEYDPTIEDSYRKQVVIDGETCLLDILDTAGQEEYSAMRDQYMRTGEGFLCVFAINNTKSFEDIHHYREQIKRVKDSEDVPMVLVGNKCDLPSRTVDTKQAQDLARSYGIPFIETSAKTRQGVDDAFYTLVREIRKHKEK
Sequence of KRAS G12C (P62937 whole entry): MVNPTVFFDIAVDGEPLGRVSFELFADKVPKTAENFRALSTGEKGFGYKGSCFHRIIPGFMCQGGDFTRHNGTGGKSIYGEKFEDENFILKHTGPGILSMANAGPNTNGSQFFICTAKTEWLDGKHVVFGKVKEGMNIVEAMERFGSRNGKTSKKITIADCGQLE
Sequence of KRAS WT (P01116 1-169 isoform P01116-2 limits assumed): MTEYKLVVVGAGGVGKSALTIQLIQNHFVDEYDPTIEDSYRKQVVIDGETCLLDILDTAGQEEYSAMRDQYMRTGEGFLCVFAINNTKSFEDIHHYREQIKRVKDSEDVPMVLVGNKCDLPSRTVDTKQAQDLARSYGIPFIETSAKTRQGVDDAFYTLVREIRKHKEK
Sequence of KRAS WT (P62937 whole entry): as the sequence (P62937 whole entry) above
Sequence of KRAS G12S (P01116 1-169 isoform P01116-2 G12S limits assumed): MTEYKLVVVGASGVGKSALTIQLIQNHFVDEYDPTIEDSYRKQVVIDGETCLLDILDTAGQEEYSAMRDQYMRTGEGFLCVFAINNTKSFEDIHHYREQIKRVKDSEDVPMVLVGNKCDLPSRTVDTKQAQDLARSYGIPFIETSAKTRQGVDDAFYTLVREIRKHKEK
Sequence of KRAS G12S (P62937 whole entry): as the sequence (P62937 whole entry) above
Sequence of KRAS G12D (P01116 1-169 isoform P01116-2 G12D limits assumed): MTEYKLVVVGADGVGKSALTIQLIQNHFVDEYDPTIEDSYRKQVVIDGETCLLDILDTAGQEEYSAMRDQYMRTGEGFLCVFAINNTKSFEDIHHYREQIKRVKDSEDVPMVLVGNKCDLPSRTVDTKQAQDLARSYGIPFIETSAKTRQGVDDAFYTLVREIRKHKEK
Sequence of KRAS G12D (P62937 whole entry): as the sequence (P62937 whole entry) above
Sequence of KRAS G13C (P01116 1-169 isoform P01116-2 G13C): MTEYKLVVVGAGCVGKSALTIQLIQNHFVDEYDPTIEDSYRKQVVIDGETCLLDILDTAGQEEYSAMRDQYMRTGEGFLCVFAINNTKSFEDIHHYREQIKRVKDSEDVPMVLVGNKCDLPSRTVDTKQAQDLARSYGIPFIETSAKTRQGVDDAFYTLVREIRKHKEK
Sequence of KRAS G13C (P62937 whole entry): as the sequence (P62937 whole entry) above
Sequence of KRAS G12V (P01116 1-169 isoform P01116-2 G12V limits assumed): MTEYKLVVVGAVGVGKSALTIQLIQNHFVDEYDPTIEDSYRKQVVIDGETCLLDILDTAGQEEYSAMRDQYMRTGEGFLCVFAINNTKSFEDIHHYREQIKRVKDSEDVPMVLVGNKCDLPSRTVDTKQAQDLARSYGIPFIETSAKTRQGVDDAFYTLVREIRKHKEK
Sequence of KRAS G12V (P62937 whole entry): as the sequence (P62937 whole entry) above
Sequence of KRAS G13D (P01116 1-169 isoform P01116-2 G13D limits assumed): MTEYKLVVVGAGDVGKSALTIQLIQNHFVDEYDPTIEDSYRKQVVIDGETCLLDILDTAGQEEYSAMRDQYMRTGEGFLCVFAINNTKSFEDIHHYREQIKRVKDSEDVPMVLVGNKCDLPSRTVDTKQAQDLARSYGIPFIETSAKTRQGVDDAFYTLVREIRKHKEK
Sequence of KRAS G13D (P62937 whole entry): as the sequence (P62937 whole entry) above
Sequence of NRAS G12C (P01111 whole entry G12C): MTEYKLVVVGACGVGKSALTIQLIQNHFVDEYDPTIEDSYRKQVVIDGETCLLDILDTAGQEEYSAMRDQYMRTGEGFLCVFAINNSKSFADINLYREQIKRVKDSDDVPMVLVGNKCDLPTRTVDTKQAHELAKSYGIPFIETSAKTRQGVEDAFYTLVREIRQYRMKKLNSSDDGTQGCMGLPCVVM
Sequence of NRAS G12C (P62937 whole entry): as the sequence (P62937 whole entry) above

For orientation: IC50 means the point on the concentration scale where inhibition reaches its midpoint. `CCn1c(-c2cccnc2[C@H](C)OC)c2c3cc(ccc31)-c1csc(n1)C[C@H](NC(=O)[C@H](C(C)C)N(C)C(=O)N1C[C@H]3CN(C)C[C@H]3C1)C(=O)N1CCC[C@H](N1)C(=O)OCC(C)(C)C2` [Example A313]: the IC50 on KRAS G13D was 100 to 1000 nM; at KRAS G12D, 100 to 1000 nM; on KRAS G12V, 100 to 1000 nM; at KRAS G13C, 100 to 1000 nM; at NRAS G12C it was 10 to 100 nM; on KRAS WT, 100 to 1000 nM. The half-inhibitory concentration (IC50) on KRAS G12S was 100 to 1000 nM; at KRAS G12C, 100 to 1000 nM; with Capan-1 (K-Ras G12V), 10 to 100 nM; in the assay on NCI-H358 (K-Ras G12C), 10 to 100 nM.

For the molecule `CCN(CC)C1CN(C(=O)N(C)[C@H](C(=O)N[C@H]2Cc3nc(cs3)-c3ccc4c(c3)c(c(-c3cccnc3[C@H](C)OC)n4CC)CC(C)(C)COC(=O)[C@@H]3CCCN(N3)C2=O)C(C)C)C1` [Example A319], the IC50 on KRAS G13D was 100 to 1000 nM; on KRAS G12D it was 1000 to 10000 nM; on KRAS G12V, 100 to 1000 nM; at KRAS G13C it was 100 to 1000 nM; on NRAS G12C it was 10 to 100 nM; on KRAS WT, 100 to 1000 nM. The half-inhibitory concentration (IC50) at KRAS G12S was in the range of 100 to 1000 nM; on KRAS G12C, 100 to 1000 nM; in the assay on Capan-1 (K-Ras G12V), 10 to 100 nM; in the assay with NCI-H358 (K-Ras G12C) it was 10 to 100 nM.

For `CCn1c(-c2cccnc2[C@H](C)OC)c2c3cc(ccc31)-c1csc(n1)C[C@H](NC(=O)[C@H](C(C)C)N(C)C(=O)N1CC(N3CCCC3)C1)C(=O)N1CCC[C@H](N1)C(=O)OCC(C)(C)C2` [Example A329], the IC50 at KRAS G13D is 100 to 1000 nM; on KRAS G12D, 1000 to 10000 nM; on KRAS G12V, 100 to 1000 nM; on KRAS G13C, 100 to 1000 nM; on NRAS G12C it was 100 to 1000 nM; on KRAS WT, 100 to 1000 nM. Further, the IC50 on KRAS G12S lay in the range of 100 to 1000 nM; on KRAS G12C, 100 to 1000 nM; in the assay on Capan-1 (K-Ras G12V) it was 10 to 100 nM; in the assay on NCI-H358 (K-Ras G12C), 10 to 100 nM.

Take `CCn1c(-c2cccnc2[C@H](C)OC)c2c3cc(ccc31)-c1csc(n1)C[C@H](NC(=O)[C@H](C(C)C)N(C)C(=O)N(C)CC(C)C)C(=O)N1CCC[C@H](N1)C(=O)OCC(C)(C)C2` [Example A332]: the half-maximal inhibitory concentration (IC50) on KRAS G13D, at KRAS G12D, at KRAS G12V, at KRAS G13C, on NRAS G12C and on KRAS WT was 100 to 1000 nM in each case. Further, the 50% inhibitory concentration (IC50) at KRAS G12S, at KRAS G12C, with Capan-1 (K-Ras G12V) and in the assay on NCI-H358 (K-Ras G12C) was 100 to 1000 nM each time.

For `CCN(C(=O)N(C)[C@H](C(=O)N[C@H]1Cc2nc(cs2)-c2ccc3c(c2)c(c(-c2cccnc2[C@H](C)OC)n3CC)CC(C)(C)COC(=O)[C@@H]2CCCN(N2)C1=O)C(C)C)C(C)C` [Example A333], the IC50 is 100 to 1000 nM on KRAS G13D; 100 to 1000 nM on KRAS G12D; 100 to 1000 nM on KRAS G12V; 100 to 1000 nM at KRAS G13C; 10 to 100 nM on NRAS G12C; 10 to 100 nM on KRAS WT. For the same molecule, the IC50 on KRAS G12S was in the range of 100 to 1000 nM; at KRAS G12C, 10 to 100 nM; in the assay with Capan-1 (K-Ras G12V), 100 to 1000 nM; with NCI-H358 (K-Ras G12C) it was 10 to 100 nM.

Turning to `CCn1c(-c2cccnc2[C@H](C)OC)c2c3cc(ccc31)-c1csc(n1)C[C@H](NC(=O)[C@@H](OC(=O)N1CC(N(C)C)C1)C(C)C)C(=O)N1CCC[C@H](N1)C(=O)OCC(C)(C)C2` [Example A339], the IC50 on KRAS G13D lay within 1000 to 10000 nM; at KRAS G12D, 1000 to 10000 nM; at KRAS G12V, 1000 to 10000 nM; on KRAS G13C, 1000 to 10000 nM; on NRAS G12C, 100 to 1000 nM; on KRAS WT it was 100 to 1000 nM. In addition, the IC50 at KRAS G12S is 1000 to 10000 nM; on KRAS G12C, 100 to 1000 nM; in the assay on Capan-1 (K-Ras G12V), 1000 to 10000 nM; in the assay on NCI-H358 (K-Ras G12C), 100 to 1000 nM.

(Values after patent US20230233569A1 (Revolution Medicines, Inc., priority 2020, published 2023).)
